In this assay the target is T1, bovine serum albumin (BSA) (Bos taurus, UniProt P02769).
T1 construct: gene ALB
As to the kind of experiment: fluorescence emission titration (BSA quenching, excitation […] nm), double-log plot; value is Ka, n = […]. It is filed as binding. Conditions: read-out: fluorescence emission titration (BSA quenching, excitation 287 nm), double-log p (converted).

Data on one compound can be found in paper PMC10518658, “Dual activity of indolin-2-ones containing an arylidene motif: DNA and BSA interaction” (RSC Advances, 2023).

T1 sequence (P02769 25-607): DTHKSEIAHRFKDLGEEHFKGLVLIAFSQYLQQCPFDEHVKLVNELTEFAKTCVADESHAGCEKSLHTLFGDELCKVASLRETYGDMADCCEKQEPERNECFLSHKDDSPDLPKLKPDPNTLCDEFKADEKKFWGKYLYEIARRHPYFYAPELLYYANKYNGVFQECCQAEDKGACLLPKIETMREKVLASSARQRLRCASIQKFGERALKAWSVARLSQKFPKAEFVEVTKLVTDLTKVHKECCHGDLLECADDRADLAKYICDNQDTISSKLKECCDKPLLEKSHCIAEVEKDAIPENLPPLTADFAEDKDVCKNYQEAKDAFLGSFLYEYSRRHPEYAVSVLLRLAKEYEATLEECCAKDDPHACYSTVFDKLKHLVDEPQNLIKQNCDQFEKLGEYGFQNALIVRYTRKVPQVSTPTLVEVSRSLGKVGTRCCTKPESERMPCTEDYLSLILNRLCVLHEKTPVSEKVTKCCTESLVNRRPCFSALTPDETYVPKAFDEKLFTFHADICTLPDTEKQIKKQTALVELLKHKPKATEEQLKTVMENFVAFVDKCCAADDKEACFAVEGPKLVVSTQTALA

For `C=CCN1C(=O)C(=CC(=O)c2cccc(N)c2)c2ccccc21` [4d, 1-Allyl-3-(2-(3-aminophenyl)-2-oxoethylidene)indolin-2-one], the Kd was 164 nM.
